Entries after “also recorded” stand apart in the source; their conditions may differ. [BANA] = cross-linked (bridged) nucleoside of the invention; l = locked nucleic acid (LNA); d = 2'-deoxy (DNA)
System: mice (C57BL/6J, male)
Experiment: Toxicity reducing effect: serum AST/ALT and death in mice
Format: in vivo
Conditions: 20 mg/kg intraperitoneally
Experimental: The test oligonucleotides (20 mg/kg) shown in Table 45 were administered intraperitoneally to six-week-old mice (C57BL/6J, male) (5 mice/group). After 96 hours, blood was collected under inhalation anesthesia (isoflurane), and the mice were exsanguinated. Then, the activities of aspartate transaminase (AST) and alanine transaminase (ALT) in serum were measured using an automated analyzer (FUJI DRI-CHEM 4000V manufactured by FUJIFILM).

[1] = 5 mice/group, serum after 96 hours, Means ± SD

Substance | Remarks (death of mice) (5 mice/group, 96 hours) | ALT [1] [IU/L] | AST [1] [IU/L] | increase in ALT and AST (after 96 hours, versus saline)
5′-d(^LG^^LT^^LT^t^g^c^c^a^c^c^^LC^^LT^^LA)-3′ (antisense GTTATGCCACCCTA; sugars from the 5' end l3 d8 l3, all phosphorothioate, methylation of C not given here) [(29), reference compound] | all of the five mice died; also recorded: All 5 died |  |  | 
5′-d(^LG^T^T^a^t^g^c^c^a^c^c^^LC^T^^LA)-3′ (antisense GTTATGCCACCCTA; sugars from the 5' end l[BANA][BANA]ddddddddl[BANA]l, all phosphorothioate, methylation of C not given here) [(28), T: BANA-T3] |  | 36.8 ± 9.5 | 223.2 ± 102.6 | almost no increase in ALT and AST

Reference: patent US12473299B2, “Cross-linked nucleoside and nucleotide using same” (Osaka University, priority 2020, dated 2025)
